What was measured:
Type in all cases: in vivo
[1] = tested on: Diabrotica balteata (Corn Root Worm); assay: Example B1: Activity against Diabrotica balteata (corn root worm), sprayed maize sprouts; conditions: 96 h, application rate 200 ppm, L2 larvae on sprayed maize sprouts, 4 days after infestation, read-out: effect in at least one of the two categories (mortality or growth inhibition)
Method: Example B1: Activity Against Diabrotica balteata (Corn Root Worm)
Maize sprouts placed onto an agar layer in 24-well microtiter plates were treated with aqueous test solutions prepared from 10′000 ppm DMSO stock solutions by spraying. After drying, the plates were infested with L2 larvae (6 to 10 per well). The samples were assessed for mortality and growth inhibition in comparison to untreated samples 4 days after infestation.

[2] = tested on: Euschistus heros (Neotropical Brown Stink Bug); assay: Example B2: Activity against Euschistus heros (neotropical brown stink bug), sprayed soybean leaves; conditions: 120 h, application rate 200 ppm, N2 nymphs on sprayed soybean leaves, 5 days after infestation, read-out: effect in at least one of the two categories (mortality or growth inhibition)
Method: Example B2: Activity Against Euschistus heros (Neotropical Brown Stink Bug)
Soybean leaves on agar in 24-well microtiter plates were sprayed with aqueous test solutions prepared from 10′000 ppm DMSO stock solutions. After drying the leaves were infested with N2 nymphs. The samples were assessed for mortality and growth inhibition in comparison to untreated samples 5 days after infestation.

[3] = tested on: Plutella xylostella (Diamond Back Moth); assay: Example B3: Activity against Plutella xylostella (diamond back moth), artificial diet; conditions: 192 h, application rate 200 ppm, eggs on artificial diet, 8 days after infestation, read-out: effect in at least one of the two categories (mortality or growth inhibition)
Method: Example B3: Activity Against Plutella xylostella (Diamond Back Moth)
24-well microtiter plates with artificial diet were treated with aqueous test solutions prepared from 10′000 ppm DMSO stock solutions by pipetting. After drying, Plutella eggs were pipetted through a plastic stencil onto a gel blotting paper and the plate was closed with it. The samples were assessed for mortality and growth inhibition in comparison to untreated samples 8 days after infestation. The following compounds gave an effect of at least 80% in at least one of the two categories (mortality or growth inhibition) at an application rate of 200 ppm: P2, P4, P5, P6, P8, P9, P10, P11, P12, P14, P15, P16, P17, P18, P19, P20, P21, P22, P23, P24, P25, P26, P27, P28, P29, P30, P31, P32, P33, P34, P35, P36, P38, P39, P40, P42, P45, P46, P47, P49, P50, P51, P52.

[4] = tested on: Myzus persicae (Green Peach Aphid); assay: whole plant or invertebrate; conditions: foliar, 144 h, application rate 200 ppm, sprayed sunflower leaf discs, mixed ages, 6 days after infestation
Method: Example B4: Activity Against Myzus persicae (Green Peach Aphid) Feeding/Contact Activity
Sunflower leaf discs were placed onto agar in a 24-well microtiter plate and sprayed with aqueous test solutions prepared from 10′000 ppm DMSO stock solutions. After drying, the leaf discs were infested with an aphid population of mixed ages. The samples were assessed for mortality 6 days after infestation.

[5] = tested on: Myzus persicae (Green Peach Aphid); assay: Example B5: Activity against Myzus persicae (green peach aphid), systemic activity; conditions: 144 h, test rate 24 ppm, roots of pea seedlings in test solution, mixed ages, 6 days
Method: Example B5: Activity Against Myzus persicae (Green Peach Aphid) Systemic Activity
Roots of pea seedlings infested with an aphid population of mixed ages were placed directly into aqueous test solutions prepared from 10′000 DMSO stock solutions. The samples were assessed for mortality 6 days after placing seedlings into test solutions.

[6] = tested on: Spodoptera littoralis (Egyptian Cotton Leaf Worm); assay: Example B6: Activity against Spodoptera littoralis (Egyptian cotton leaf worm); conditions: foliar, 72 h, application rate 200 ppm, L1 larvae on sprayed cotton leaf discs, 3 days after infestation, read-out: control (mortality, anti-feeding effect or growth inhibition)
Method: Example B6: Activity Against Spodoptera littoralis (Egyptian Cotton Leaf Worm)
Cotton leaf discs were placed onto agar in 24-well microtiter plates and sprayed with aqueous test solutions prepared from 10′000 ppm DMSO stock solutions. After drying the leaf discs were infested with five L1 larvae. The samples were assessed for mortality, anti-feeding effect, and growth inhibition in comparison to untreated samples 3 days after infestation. Control of Spodoptera littoralis by a test sample is given when at least one of the categories mortality, anti-feedant effect, and growth inhibition is higher than the untreated sample.

CCS(=O)(=O)c1cc(C2(C#N)CC2)cnc1-c1cc2ncn(CC(F)(F)C(F)(F)F)c2cn1 [Compound P34, 1-[5-ethylsulfonyl-6-[3-(2,2,3,3,3-pentafluoropropyl)imidazo [4,5-c]pyridin-6-yl]-3-pyridyl]cyclopropane-carbonitrile]
≥ 80%: percent effect (mortality or growth inhibition) at 200 ppm [1] | percent effect (mortality or growth inhibition) at 200 ppm [2] | percent effect (mortality or growth inhibition) at 200 ppm [3] | mortality at 200 ppm [4] | mortality at 24 ppm [5]

CCS(=O)(=O)c1cc(N(C)C(C)=O)cnc1-c1cc2cnn(CC(F)(F)C(F)(F)F)c2cn1 [Compound P2, N-[5-ethylsulfonyl-6-[1-(2,2,3,3,3-pentafluoropropyl)pyrazolo[3,4-c]pyridin-5-yl]-3-pyridyl]-N-methyl-acetamide]
≥ 80%: percent effect (mortality or growth inhibition) at 200 ppm [1] | percent effect (mortality or growth inhibition) at 200 ppm [2] | percent effect (mortality or growth inhibition) at 200 ppm [3] | mortality at 200 ppm [4] | mortality at 24 ppm [5] | percent control (mortality, anti-feedant effect or growth inhibition) at 200 ppm [6]

CCS(=O)(=O)c1cc(C2CC2)cnc1-c1cc2ncn(CC(F)(F)C(F)(F)F)c2cn1 [Compound P52, 6-(5-cyclopropyl-3-ethylsulfonyl-2-pyridyl)-3-(2,2,3,3,3-pentafluoropropyl) imidazo[4,5-c]pyridine]
≥ 80%: percent effect (mortality or growth inhibition) at 200 ppm [1] | percent effect (mortality or growth inhibition) at 200 ppm [2] | percent effect (mortality or growth inhibition) at 200 ppm [3] | mortality at 24 ppm [5] | percent control (mortality, anti-feedant effect or growth inhibition) at 200 ppm [6]

CCSc1cccnc1-c1cc2ncn(CC(F)(F)C(F)(F)F)c2cn1 [Compound P44, 6-(3-ethylsulfanyl-2-pyridyl)-3-(2,2,3,3,3-pentafluoropropyl) imidazo[4,5-c]pyridine]
≥ 80%: mortality at 200 ppm [4] | mortality at 24 ppm [5]

CCS(=O)(=O)c1cccnc1-c1cc2cnn(CC(F)(F)C(F)(F)F)c2cn1 [Compound P4, 5-(3-ethylsulfonyl-2-pyridyl)-1-(2,2,3,3,3-pentafluoropropyl)pyrazolo[3,4-c]pyridine]
≥ 80%: percent effect (mortality or growth inhibition) at 200 ppm [1] | percent effect (mortality or growth inhibition) at 200 ppm [2] | percent effect (mortality or growth inhibition) at 200 ppm [3] | mortality at 200 ppm [4] | mortality at 24 ppm [5] | percent control (mortality, anti-feedant effect or growth inhibition) at 200 ppm [6]

CCS(=O)(=O)c1cc(N(C)C(C)=O)cnc1-c1cc2ccn(CC(F)(F)C(F)(F)F)c2cn1 [Compound P16, N-[5-ethylsulfonyl-6-[1-(2,2,3,3,3-pentafluoropropyl)pyrrolo[2,3-c]pyridin-5-yl]-3-pyridyl]-N-methyl-acetamide]
≥ 80%: percent effect (mortality or growth inhibition) at 200 ppm [1] | percent effect (mortality or growth inhibition) at 200 ppm [3] | mortality at 200 ppm [4] | mortality at 24 ppm [5] | percent control (mortality, anti-feedant effect or growth inhibition) at 200 ppm [6]

CCS(=O)(=O)c1cc(C2(C#N)CC2)cnc1-c1cc2ccn(CC(F)(F)C(F)(F)F)c2cn1 [Compound P23, 1-[5-ethylsulfonyl-6-[1-(2,2,3,3,3-pentafluoropropyl)pyrrolo[2,3-c]pyridin-5-yl]-3-pyridyl] cyclopropane-carbonitrile]
≥ 80%: percent effect (mortality or growth inhibition) at 200 ppm [1] | percent effect (mortality or growth inhibition) at 200 ppm [2] | percent effect (mortality or growth inhibition) at 200 ppm [3] | mortality at 200 ppm [4] | percent control (mortality, anti-feedant effect or growth inhibition) at 200 ppm [6]
